Calls of active or inactive are those of the source.
What was measured:
[1] = system: Streptococcus sp. 'group A'; assay: growth inhibition of control SK(-) GAS strain, dose response, counter-screen for streptokinase expression inhibitor project, luminescence, kanamycin, BacTiterGlo, confirmation (AID 1900); format: functional, organism-based
[2] = target: T1, Sentrin-specific protease 8 (Homo sapiens, UniProt Q96LD8); format: functional;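 note: luminescence read-out of SENP8 inhibition, dose-response confirmation following an ultra-high-throughput screen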
T1 sequence (Q96LD8 whole entry): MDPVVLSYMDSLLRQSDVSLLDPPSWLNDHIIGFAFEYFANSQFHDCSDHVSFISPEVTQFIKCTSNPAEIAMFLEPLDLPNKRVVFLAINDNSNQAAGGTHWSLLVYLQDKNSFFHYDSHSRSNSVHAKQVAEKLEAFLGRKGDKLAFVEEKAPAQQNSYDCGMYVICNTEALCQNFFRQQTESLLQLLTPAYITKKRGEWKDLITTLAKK

Caspase-3 = target: T2, Caspase-3 (Homo sapiens, UniProt P42574); format: functional;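 note: Dose-response selectivity test against caspase-3 for candidate inhibitors of sentrin-specific proteases (SENPs)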
T2 sequence (P42574 whole entry): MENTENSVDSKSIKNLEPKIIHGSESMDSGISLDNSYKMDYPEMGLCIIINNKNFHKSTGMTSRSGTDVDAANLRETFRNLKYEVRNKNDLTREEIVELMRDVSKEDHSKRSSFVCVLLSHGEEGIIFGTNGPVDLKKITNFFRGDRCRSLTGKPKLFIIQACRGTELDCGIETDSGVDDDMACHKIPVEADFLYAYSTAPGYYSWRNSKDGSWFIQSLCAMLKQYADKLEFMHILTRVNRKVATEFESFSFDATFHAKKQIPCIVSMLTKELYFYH

[3] = target: cAMP-dependent protein kinase catalytic subunit alpha (Homo sapiens, UniProt P17612); format: functional
[4] = target: Glycogen synthase kinase-3 alpha (Homo sapiens, UniProt P49840); format: functional;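 note: GSK3A result taken from a broad kinome-wide kinase panel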
[5] = target: Macrophage colony-stimulating factor 1 receptor (Homo sapiens, UniProt P07333); format: functional;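 note: value comes from the Navigating the Kinome screening panel, CSF1R member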
[6] = target: Dual specificity mitogen-activated protein kinase kinase 2 (Homo sapiens, UniProt P36507); assay: Navigating the Kinome. Panel member name: MAP2K2; format: functional
[7] = target: Cyclin-dependent kinase 8 (Homo sapiens, UniProt P49336); assay: Navigating the Kinome. Panel member name: CDK8; format: functional
[8] = target: Cyclin-dependent kinase 7 (Homo sapiens, UniProt P50613); format: functional;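 note: value comes from a kinome-wide kinase profiling panel in which CDK7 is one member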
[9] = target: Ribosomal protein S6 kinase alpha-3 (Homo sapiens, UniProt P51812); format: functional;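 note: measured within a kinome-wide profiling panel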
[10] = target: Inhibitor of nuclear factor kappa-B kinase subunit epsilon (Homo sapiens, UniProt Q14164); assay: Navigating the Kinome. Panel member name: IKBKE; format: functional
Aurora kinase A = Aurora kinase A (Homo sapiens, UniProt O14965); format: functional;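 note: value from the Navigating the Kinome kinase panel profiling, panel entry STK6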
[11] = target: Casein kinase I isoform alpha (Homo sapiens, UniProt P48729); format: functional
[12] = target: Serine/threonine-protein kinase TAO1 (Homo sapiens, UniProt Q7L7X3); format: functional
[13] = target: Cyclin-dependent kinase 9 (Homo sapiens, UniProt P50750); format: functional;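 note: value from the CDK9 entry of a kinome-spanning kinase panel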
[14] = target: Tyrosine-protein kinase receptor TYRO3 (Homo sapiens, UniProt Q06418); format: functional;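 note: TYRO3 value obtained as one member of a kinome-wide profiling panel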
[15] = target: Tyrosine-protein kinase JAK2 (Homo sapiens, UniProt O60674); format: functional;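 note: JAK2 tested as one member of a kinase panel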
[16] = target: ALK tyrosine kinase receptor (Homo sapiens, UniProt Q9UM73); format: functional;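 note: ALK tested as one member of a kinase panel screen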
[17] = target: Tyrosine-protein kinase Lck (Homo sapiens, UniProt P06239); format: functional;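 note: lck was assayed as one member of a kinase panel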
[18] = target: Serine/threonine-protein kinase D3 (Homo sapiens, UniProt O94806); format: functional;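 note: determined within a kinase panel screen, with PRKCN as the panel member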
[19] = target: Tyrosine-protein kinase BTK (Homo sapiens, UniProt Q06187); format: functional
[20] = target: Receptor-type tyrosine-protein kinase FLT3 (Homo sapiens, UniProt P36888); format: functional;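 note: FLT3 was tested as one member of a kinome-wide kinase panel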
[21] = target: Macrophage-stimulating protein receptor (Homo sapiens, UniProt Q04912); assay: Navigating the Kinome. Panel member name: MST1R; format: functional
[22] = target: Death-associated protein kinase 3 (Homo sapiens, UniProt O43293); format: functional;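 note: measured as one member of a kinome-wide profiling panel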
[23] = target: Mitogen-activated protein kinase kinase kinase kinase 4 (Homo sapiens, UniProt O95819); format: functional
[24] = target: High affinity nerve growth factor receptor (Homo sapiens, UniProt P04629); format: functional;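 note: NTRK1 tested as one member of a kinome-wide profiling panel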
[25] = target: Tyrosine-protein kinase Fyn (Homo sapiens, UniProt P06241); format: functional
Activated CDC42 kinase 1 = Activated CDC42 kinase 1 (Homo sapiens, UniProt Q07912); assay: Navigating the Kinome. Panel member name: ACK1; format: functional
Chain of Activated CDC42 kinase 1 (Q07912 whole entry): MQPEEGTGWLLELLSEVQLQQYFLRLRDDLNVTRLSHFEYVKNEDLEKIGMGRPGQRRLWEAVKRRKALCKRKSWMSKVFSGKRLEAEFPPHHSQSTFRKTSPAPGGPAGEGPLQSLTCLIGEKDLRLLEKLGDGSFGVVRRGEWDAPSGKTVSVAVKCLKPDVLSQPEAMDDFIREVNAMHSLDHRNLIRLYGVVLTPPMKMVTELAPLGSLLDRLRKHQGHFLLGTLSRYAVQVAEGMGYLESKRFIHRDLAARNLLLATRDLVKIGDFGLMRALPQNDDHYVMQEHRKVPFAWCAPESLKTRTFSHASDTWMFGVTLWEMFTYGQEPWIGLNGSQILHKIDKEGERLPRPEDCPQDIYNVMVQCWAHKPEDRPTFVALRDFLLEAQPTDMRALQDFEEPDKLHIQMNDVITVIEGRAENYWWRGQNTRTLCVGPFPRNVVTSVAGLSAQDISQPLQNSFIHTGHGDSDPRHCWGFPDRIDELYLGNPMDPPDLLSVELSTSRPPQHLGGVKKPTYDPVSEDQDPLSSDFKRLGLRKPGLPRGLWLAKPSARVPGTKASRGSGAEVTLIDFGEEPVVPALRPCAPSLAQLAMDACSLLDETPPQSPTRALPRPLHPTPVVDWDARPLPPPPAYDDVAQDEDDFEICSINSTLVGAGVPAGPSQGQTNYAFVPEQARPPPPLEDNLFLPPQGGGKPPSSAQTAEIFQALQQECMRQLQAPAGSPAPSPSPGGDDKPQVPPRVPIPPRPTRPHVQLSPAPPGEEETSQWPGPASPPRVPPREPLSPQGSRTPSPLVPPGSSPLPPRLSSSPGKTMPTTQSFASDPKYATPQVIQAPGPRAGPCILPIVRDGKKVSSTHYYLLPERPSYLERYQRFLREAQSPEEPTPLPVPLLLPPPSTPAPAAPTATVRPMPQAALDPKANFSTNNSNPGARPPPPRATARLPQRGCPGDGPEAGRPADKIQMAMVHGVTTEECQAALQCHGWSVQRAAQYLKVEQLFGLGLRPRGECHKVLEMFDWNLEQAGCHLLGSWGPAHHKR

Chain of Glycogen synthase kinase-3 alpha (P49840 whole entry): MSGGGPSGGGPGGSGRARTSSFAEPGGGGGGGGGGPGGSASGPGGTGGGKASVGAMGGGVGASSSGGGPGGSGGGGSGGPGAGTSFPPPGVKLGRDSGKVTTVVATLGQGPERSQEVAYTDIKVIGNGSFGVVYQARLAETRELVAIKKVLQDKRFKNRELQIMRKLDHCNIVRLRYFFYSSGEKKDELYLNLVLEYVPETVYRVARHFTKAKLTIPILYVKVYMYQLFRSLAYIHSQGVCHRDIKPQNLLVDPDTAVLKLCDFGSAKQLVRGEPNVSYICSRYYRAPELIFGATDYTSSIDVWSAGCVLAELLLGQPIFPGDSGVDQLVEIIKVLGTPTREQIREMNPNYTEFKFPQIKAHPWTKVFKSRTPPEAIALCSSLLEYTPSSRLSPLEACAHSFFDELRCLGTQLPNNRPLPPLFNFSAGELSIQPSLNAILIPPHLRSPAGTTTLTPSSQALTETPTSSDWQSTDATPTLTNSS
Chain of Mitogen-activated protein kinase kinase kinase kinase 4 (O95819 whole entry): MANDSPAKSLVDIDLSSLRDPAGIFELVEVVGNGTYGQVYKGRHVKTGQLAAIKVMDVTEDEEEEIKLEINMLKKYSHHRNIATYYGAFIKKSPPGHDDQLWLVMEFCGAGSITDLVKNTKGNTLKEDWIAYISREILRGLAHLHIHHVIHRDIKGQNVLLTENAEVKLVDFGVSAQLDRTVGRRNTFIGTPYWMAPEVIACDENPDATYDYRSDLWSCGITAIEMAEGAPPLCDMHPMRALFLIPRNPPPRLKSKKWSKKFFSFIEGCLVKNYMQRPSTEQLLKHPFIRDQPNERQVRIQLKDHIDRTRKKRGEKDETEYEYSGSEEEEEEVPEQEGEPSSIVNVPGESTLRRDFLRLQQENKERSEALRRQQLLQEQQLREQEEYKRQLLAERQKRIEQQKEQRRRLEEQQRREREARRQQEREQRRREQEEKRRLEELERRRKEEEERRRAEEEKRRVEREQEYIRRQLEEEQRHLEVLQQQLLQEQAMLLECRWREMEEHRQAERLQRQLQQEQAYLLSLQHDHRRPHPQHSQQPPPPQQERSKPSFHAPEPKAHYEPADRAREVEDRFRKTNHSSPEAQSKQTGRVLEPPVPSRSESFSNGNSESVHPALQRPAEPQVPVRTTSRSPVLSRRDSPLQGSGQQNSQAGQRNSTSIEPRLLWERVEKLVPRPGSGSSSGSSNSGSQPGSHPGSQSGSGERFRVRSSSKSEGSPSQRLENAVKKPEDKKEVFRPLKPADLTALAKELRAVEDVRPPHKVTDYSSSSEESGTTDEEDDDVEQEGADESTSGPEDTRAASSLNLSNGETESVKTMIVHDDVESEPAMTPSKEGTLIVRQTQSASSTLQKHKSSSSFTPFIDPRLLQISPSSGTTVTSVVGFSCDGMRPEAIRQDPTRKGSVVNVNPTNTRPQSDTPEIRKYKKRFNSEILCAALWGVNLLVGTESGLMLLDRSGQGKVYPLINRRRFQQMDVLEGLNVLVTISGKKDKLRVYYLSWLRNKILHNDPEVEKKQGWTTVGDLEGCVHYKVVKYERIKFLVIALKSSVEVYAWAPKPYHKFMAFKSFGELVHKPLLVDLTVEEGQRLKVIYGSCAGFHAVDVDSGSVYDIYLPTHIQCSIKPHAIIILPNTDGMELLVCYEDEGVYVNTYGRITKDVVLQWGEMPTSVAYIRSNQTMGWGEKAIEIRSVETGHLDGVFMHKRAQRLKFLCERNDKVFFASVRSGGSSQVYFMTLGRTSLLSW
Chain of Tyrosine-protein kinase Lck (P06239 whole entry): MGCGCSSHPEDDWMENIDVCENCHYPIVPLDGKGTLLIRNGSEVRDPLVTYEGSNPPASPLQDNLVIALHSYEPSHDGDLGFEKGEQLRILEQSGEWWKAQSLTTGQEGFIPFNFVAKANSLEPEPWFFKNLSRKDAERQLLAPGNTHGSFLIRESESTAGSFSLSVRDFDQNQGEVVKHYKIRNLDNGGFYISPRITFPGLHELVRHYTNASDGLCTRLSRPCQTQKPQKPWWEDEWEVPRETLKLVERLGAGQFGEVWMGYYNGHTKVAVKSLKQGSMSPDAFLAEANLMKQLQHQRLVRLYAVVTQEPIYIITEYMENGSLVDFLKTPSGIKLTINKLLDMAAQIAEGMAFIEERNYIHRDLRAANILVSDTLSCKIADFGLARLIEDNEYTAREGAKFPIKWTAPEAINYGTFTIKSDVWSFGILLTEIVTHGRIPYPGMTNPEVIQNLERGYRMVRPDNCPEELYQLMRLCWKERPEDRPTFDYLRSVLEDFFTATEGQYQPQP
Chain of Death-associated protein kinase 3 (O43293 whole entry): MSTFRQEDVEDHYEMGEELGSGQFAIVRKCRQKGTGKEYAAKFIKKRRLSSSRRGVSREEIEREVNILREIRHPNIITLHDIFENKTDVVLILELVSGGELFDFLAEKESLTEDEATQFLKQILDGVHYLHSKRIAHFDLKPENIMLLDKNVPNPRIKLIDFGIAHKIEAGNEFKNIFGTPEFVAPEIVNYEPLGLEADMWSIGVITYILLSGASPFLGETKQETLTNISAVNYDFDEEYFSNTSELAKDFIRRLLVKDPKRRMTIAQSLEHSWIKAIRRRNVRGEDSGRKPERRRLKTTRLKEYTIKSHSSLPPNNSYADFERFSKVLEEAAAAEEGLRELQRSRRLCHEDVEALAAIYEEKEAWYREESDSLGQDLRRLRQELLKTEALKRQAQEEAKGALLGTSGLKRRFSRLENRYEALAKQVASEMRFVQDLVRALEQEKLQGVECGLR
Chain of Receptor-type tyrosine-protein kinase FLT3 (P36888 whole entry): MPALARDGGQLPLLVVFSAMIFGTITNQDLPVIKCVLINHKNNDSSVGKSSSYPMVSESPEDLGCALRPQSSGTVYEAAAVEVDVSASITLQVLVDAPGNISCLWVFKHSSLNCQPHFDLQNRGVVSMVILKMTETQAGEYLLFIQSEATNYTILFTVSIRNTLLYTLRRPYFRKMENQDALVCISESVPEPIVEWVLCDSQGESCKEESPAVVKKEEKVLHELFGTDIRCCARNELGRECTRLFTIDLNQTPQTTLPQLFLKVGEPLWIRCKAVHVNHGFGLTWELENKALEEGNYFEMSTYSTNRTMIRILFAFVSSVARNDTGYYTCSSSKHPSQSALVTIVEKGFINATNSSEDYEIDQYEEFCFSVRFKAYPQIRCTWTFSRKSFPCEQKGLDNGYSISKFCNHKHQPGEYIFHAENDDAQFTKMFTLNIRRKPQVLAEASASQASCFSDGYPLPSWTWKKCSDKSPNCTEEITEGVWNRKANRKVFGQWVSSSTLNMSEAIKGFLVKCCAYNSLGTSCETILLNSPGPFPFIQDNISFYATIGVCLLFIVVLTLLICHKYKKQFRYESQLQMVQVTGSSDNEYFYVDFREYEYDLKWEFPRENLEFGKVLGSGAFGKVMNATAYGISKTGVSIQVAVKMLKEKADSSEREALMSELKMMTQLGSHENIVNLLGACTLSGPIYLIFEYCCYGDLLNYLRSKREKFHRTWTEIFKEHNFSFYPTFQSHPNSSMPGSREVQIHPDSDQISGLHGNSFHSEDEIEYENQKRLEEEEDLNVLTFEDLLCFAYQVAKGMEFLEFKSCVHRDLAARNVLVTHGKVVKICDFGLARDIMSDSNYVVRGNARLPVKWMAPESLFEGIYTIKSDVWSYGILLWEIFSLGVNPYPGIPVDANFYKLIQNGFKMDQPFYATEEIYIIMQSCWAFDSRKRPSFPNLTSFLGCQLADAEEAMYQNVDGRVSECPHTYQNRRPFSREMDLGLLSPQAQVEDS
Chain of Cyclin-dependent kinase 7 (P50613 whole entry): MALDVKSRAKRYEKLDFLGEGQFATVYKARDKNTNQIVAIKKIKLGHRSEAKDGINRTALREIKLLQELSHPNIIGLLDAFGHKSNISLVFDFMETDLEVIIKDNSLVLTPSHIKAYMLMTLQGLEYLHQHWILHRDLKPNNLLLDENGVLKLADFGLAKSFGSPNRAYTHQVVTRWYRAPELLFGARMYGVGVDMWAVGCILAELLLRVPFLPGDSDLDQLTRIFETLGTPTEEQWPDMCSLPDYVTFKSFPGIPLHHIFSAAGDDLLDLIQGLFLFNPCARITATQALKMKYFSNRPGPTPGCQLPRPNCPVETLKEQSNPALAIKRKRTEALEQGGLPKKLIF

Row | Structure (SMILES) | EC50 [1] | IC50 [2] | IC50 (Caspase-3) | Ki [3] | Ki [4] | Ki [5] | Ki [6] | Ki [7] | Ki [8] | Ki [9] | Ki [10] | Ki (Aurora kinase A) | Ki [11] | Ki [12] | Ki [13] | Ki [14] | Ki [15] | Ki [16] | Ki [17] | Ki [18] | also measured
1 | CNC[C@H](Cc1ccccc1)NC[C@@H](Cc1cccc2ccccc12)NCCc1ccc(C)cc1 | 4.79 µM (active) |  |  |  |  |  |  |  |  |  |  |  |  |  |  |  |  |  |  |  | 
2 | Nc1nnc2c(n1)CCCC2 |  | 10.8 µM (active) | 14.3 µM (active) |  |  |  |  |  |  |  |  |  |  |  |  |  |  |  |  |  | 
3 | O=C(N/N=C/c1c(O)ccc2ccccc12)c1[nH]ncc1Br |  | > 100 µM (inactive) | 27.7 µM (active) |  |  |  |  |  |  |  |  |  |  |  |  |  |  |  |  |  | 
4 | Nc1c(-c2ccc(NC(=O)Nc3cccc(C(F)(F)F)c3)cc2)cnc2c(-c3ccc4c(c3)OCO4)cnn12 |  |  |  | > 1.26 µM (inactive) | > 3.98 µM (inactive) | 0.0631 µM (active) | > 3.98 µM (inactive) | 0.0251 µM (active) | > 3.98 µM (inactive) | > 3.98 µM (inactive) | > 3.16 µM (inactive) | > 1.58 µM (inactive) | > 3.98 µM (inactive) | > 6.31 µM (inactive) | > 1.58 µM (inactive) | 1.26 µM (active) | > 2.51 µM (inactive) | > 6.31 µM (inactive) | 0.0316 µM (active) | > 3.98 µM (inactive) | Ki [19]: 0.316 µM (active); Ki [20]: 0.0501 µM (active); Ki [21]: > 3.98 µM (inactive); Ki [22]: > 5.01 µM (inactive); Ki [23]: > 5.01 µM (inactive); Ki [24]: 0.1 µM (active); Ki [25]: 0.316 µM (active); Ki (Activated CDC42 kinase 1): 0.2 µM (active)
5 | O=C(Nc1cc(-c2c[nH]c3ncccc23)cc(Cl)n1)c1ccccc1 |  |  |  | > 2.51 µM (inactive) | > 3.98 µM (inactive) | > 2.51 µM (inactive) | > 3.98 µM (inactive) | 0.0794 µM (active) | > 3.98 µM (inactive) | > 3.98 µM (inactive) | > 3.16 µM (inactive) | > 1.58 µM (inactive) | > 2.51 µM (inactive) | > 6.31 µM (inactive) | > 1.58 µM (inactive) | > 3.16 µM (inactive) | > 2.51 µM (inactive) | > 6.31 µM (inactive) | > 6.31 µM (inactive) | > 3.98 µM (inactive) | Ki [19]: > 6.31 µM (inactive); Ki [20]: > 2.51 µM (inactive); Ki [21]: > 3.98 µM (inactive); Ki [22]: > 3.98 µM (inactive); Ki [23]: 2.51 µM (active); Ki [24]: > 3.16 µM (inactive); Ki [25]: > 6.31 µM (inactive); Ki (Activated CDC42 kinase 1): > 3.98 µM (inactive)
6 | CCN1C(=Cc2sc3ccccc3[n+]2C)C=Cc2cccc(C)c21 | 4.08 µM (active) |  |  |  |  |  |  |  |  |  |  |  |  |  |  |  |  |  |  |  | 

From ChEMBL document CHEMBL1201862, “PubChem BioAssay data set” (2004)
